Test results reported in PMC11433937, “Privileged Scaffold Hybridization in the Design of Carbonic Anhydrase Inhibitors” (Molecules, 2024).

How the values were obtained:
hCA XII [1] = target: T1, hCA XII (Homo sapiens, UniProt O43570); assay: Stopped-flow CA-catalyzed CO2 hydration inhibition assay
Method: (§1) A stopped-flow instrument was used, according to the previously reported methodology, to measure the CA (carbonic anhydrase)-catalyzed CO2 hydration/inhibition [46]. For 10 to 100 s, the CA-catalyzed CO2 hydration reaction’s initial rates were observed. […] Stock solutions of inhibitors (10 mM) and dilutions up to 0.01 nM were prepared in distilled-deionized water. Before the experiment started, the inhibitor and enzyme solutions were preincubated for 15 min at room temperature to allow for the formation of the enzyme/inhibitor (E/I) complex.

hCA II = hCA II (Homo sapiens, UniProt P00918); assay: Stopped-flow CA-catalyzed CO2 hydration inhibition assay
Method: as §1

hCA IX [2] = target: T2, hCA IX (Homo sapiens, UniProt Q16790); assay: as above
Method: as §1

hCA I = hCA I (Homo sapiens, UniProt P00915); assay: as above
hCA I, sequence (P00915 whole entry): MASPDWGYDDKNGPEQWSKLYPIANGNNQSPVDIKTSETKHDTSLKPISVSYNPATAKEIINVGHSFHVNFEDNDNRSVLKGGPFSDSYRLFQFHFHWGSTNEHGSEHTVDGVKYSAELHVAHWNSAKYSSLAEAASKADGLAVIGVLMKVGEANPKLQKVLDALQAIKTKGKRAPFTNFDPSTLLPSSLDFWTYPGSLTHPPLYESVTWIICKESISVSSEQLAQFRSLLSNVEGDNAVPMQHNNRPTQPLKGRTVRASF
Method: as §1

hCA XII [3] = target: T1, hCA XII; design: method as in PMID 27775452; conditions: previously synthesized compound; cited from earlier work
hCA IX [4] = target: T2, hCA IX; design: method as in PMID 27775452; conditions: previously synthesized compound; cited from earlier work

T1 sequence (O43570 30-289 limits assumed): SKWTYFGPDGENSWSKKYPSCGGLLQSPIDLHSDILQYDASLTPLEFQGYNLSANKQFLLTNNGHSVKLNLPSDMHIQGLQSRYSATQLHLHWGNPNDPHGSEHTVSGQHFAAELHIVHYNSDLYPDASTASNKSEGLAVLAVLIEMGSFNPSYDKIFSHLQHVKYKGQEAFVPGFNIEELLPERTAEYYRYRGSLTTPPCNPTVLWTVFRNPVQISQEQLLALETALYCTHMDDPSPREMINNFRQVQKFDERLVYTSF

| Compound | Ki (hCA XII [1]) | melting point | Ki (hCA II) | Ki (hCA IX [2]) | Ki (hCA I) | selectivity index SI hCA II/hCA XII (hCA XII [1]; ratio of Ki hCA II to Ki hCA XII) | selectivity index SI hCA II/hCA IX (hCA IX [2]; ratio of Ki hCA II to Ki hCA IX) | inhibitory activity against hCA XII (hCA XII [3]) | inhibitory activity against hCA IX (hCA IX [4]) |
| --- | --- | --- | --- | --- | --- | --- | --- | --- | --- |
| NS(=O)(=O)c1ccc(NN2C(=O)/C(=C3/C(=O)Nc4ccc(Cl)cc43)SC2=Nc2ccccc2)cc1 [5a, 4-((5-((Z)-5-chloro-2-oxoindolin-3-ylidene)-4-oxo-2-(phenylimino)thiazolidin-3-yl)amino)benzenesulfonamide] | 0.0611 µM | 314.2 to 316.1 °C | 0.246 µM | 0.0994 µM | 4.59 µM | – | – | – | – |
| NS(=O)(=O)c1ccc(NN2C(=O)/C(=C3/C(=O)Nc4ccc([N+](=O)[O-])cc43)SC2=Nc2ccccc2)cc1 [5b, 4-((5-((Z)-5-nitro-2-oxoindolin-3-ylidene)-4-oxo-2-(phenylimino)thiazolidin-3-yl)amino)benzenesulfonamide] | 0.0075 µM | 338.5 to 340 °C | 0.159 µM | 0.0346 µM | 6.03 µM | – | – | – | – |
| NS(=O)(=O)c1ccc(NN2C(=O)/C(=C3/C(=O)Nc4ccc(F)cc43)SC2=Nc2ccccc2)cc1 [5c, 4-((5-((Z)-5-fluoro-2-oxoindolin-3-ylidene)-4-oxo-2-(phenylimino)thiazolidin-3-yl)amino)benzenesulfonamide] | 0.0218 µM | 297.5 to 299.8 °C | 0.0069 µM | 0.0231 µM | 5.88 µM | – | – | – | – |
| NS(=O)(=O)c1ccc(NN2C(=O)/C(=C3/C(=O)Nc4ccc(Br)cc43)SC2=Nc2ccccc2)cc1 [5d, 4-((5-((Z)-5-bromo-2-oxoindolin-3-ylidene)-4-oxo-2-(phenylimino)thiazolidin-3-yl)amino)benzenesulfonamide] | 0.193 µM | 331.4 to 332.7 °C | 0.104 µM | 0.0874 µM | > 10 µM | – | – | – | – |
| COc1ccc2c(c1)/C(=C1/SC(=Nc3ccccc3)N(Nc3ccc(S(N)(=O)=O)cc3)C1=O)C(=O)N2 [5e, 4-((5-((Z)-5-methoxy-2-oxoindolin-3-ylidene)-4-oxo-2-(phenylimino)thiazolidin-3-yl)amino)benzenesulfonamide] | 0.0537 µM | 328.8 to 330.1 °C | 0.0096 µM | 0.005 µM | 9.06 µM | – | – | – | – |
| Cc1ccc2c(c1)/C(=C1/SC(=Nc3ccccc3)N(Nc3ccc(S(N)(=O)=O)cc3)C1=O)C(=O)N2 [5f, 4-((5-((Z)-5-methyl-2-oxoindolin-3-ylidene)-4-oxo-2-(phenylimino)thiazolidin-3-yl)amino)benzenesulfonamide] | 0.0006 µM | 333.9 to 334.6 °C | 0.0708 µM | 0.0149 µM | > 10 µM | 118 | 4.75 | – | – |
| NS(=O)(=O)c1ccc(NN2C(=O)/C(=C3/C(=O)Nc4ccccc43)SC2=Nc2ccccc2)cc1 [5g, 4-((4-oxo-5-((Z)-2-oxoindolin-3-ylidene)-2-(phenylimino)thiazolidin-3-yl)amino)benzenesulfonamide] | 0.0168 µM | – | 0.0096 µM | 0.0025 µM | 5.28 µM | – | – | – | – |
| NS(=O)(=O)c1ccc(NN2C(=O)/C(=C3/C(=O)Nc4c(F)cccc43)SC2=Nc2ccccc2)cc1 [5h, 4-((5-((Z)-7-fluoro-2-oxoindolin-3-ylidene)-4-oxo-2-(phenylimino)thiazolidin-3-yl)amino)benzenesulfonamide] | 0.0013 µM | 336.1 to 336.6 °C | 0.0041 µM | 0.0127 µM | 6.62 µM | – | – | – | – |
| NS(=O)(=O)c1ccc(NN2C(=O)/C(=C3/C(=O)Nc4c(Br)cccc43)SC2=Nc2ccccc2)cc1 [5i, 4-((5-((Z)-7-bromo-2-oxoindolin-3-ylidene)-4-oxo-2-(phenylimino)thiazolidin-3-yl)amino)benzenesulfonamide] | 0.094 µM | 344.9 to 346 °C | 0.0178 µM | 0.0503 µM | 7.69 µM | – | – | – | – |
| CN1C(=O)/C(=C2/C(=O)Nc3c(F)cccc32)S/C1=N\c1ccc(S(N)(=O)=O)cc1 [EMAC10020m] | – | – | – | – | – | – | – | in the nanomolar range | in the nanomolar range |
